Assay results taken from the Kinase Knowledgebase extract (Sharma et al. 2016).

target: PIK3CG (human) (UniProt P48736); assay: Inhibition of PIK3CG Kinase Activity
Sequence (P48736 whole entry, looked up): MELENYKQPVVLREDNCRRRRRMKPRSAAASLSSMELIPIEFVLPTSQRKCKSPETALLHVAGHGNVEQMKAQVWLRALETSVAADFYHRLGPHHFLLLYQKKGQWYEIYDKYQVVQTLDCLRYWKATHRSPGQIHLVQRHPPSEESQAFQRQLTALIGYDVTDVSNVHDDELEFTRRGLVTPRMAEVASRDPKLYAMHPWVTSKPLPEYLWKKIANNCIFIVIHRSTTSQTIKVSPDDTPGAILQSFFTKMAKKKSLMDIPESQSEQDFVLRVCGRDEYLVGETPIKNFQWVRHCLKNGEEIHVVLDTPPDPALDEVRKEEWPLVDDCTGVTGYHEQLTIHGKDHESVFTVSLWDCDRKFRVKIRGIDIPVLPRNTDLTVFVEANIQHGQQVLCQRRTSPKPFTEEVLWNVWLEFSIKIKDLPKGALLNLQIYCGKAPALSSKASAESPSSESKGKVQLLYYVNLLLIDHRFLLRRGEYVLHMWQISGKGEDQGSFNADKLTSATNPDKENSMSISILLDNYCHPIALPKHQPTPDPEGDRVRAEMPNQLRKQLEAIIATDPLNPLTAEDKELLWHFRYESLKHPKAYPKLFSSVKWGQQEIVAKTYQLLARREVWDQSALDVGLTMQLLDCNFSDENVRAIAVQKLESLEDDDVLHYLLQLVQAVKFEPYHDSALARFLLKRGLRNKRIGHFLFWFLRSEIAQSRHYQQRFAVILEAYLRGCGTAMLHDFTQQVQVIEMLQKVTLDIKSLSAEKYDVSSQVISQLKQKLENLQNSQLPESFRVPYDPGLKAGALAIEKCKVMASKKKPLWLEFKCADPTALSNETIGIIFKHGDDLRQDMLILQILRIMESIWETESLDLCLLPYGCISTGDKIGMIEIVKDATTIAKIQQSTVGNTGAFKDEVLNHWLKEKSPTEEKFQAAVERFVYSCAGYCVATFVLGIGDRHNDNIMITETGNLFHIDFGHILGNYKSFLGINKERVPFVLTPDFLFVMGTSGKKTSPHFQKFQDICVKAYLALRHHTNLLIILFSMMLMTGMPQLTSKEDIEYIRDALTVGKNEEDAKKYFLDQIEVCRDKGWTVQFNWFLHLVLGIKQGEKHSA

Question: CC(=O)Nc1nc2c(s1)-c1c(c(C3CC3)nn1-c1ccc(C(=O)N(C)[C@H]3CC[C@@H](N(C)CC4CCCC4)CC3)cc1F)CC2 was tested. Which IC50 did it give?
Answer: < 0.6 µM

Question: For CC(=O)Nc1nc2c(s1)-c1c(c(C3CC3)nn1-c1ccc(C(=O)NCC3CCN(C4CCCC4)CC3)c(Cl)c1)CC2, which IC50 is on record?
Answer: < 0.6 µM

Question: CC(=O)Nc1nc2c(s1)-c1c(c(C3CC3)nn1-c1ccc(C(=O)NC[C@H]3CCNC3)c(Cl)c1)CC2 was tested. Which IC50 did it give?
Answer: < 0.6 µM

Question: For CC(=O)Nc1nc2c(s1)-c1c(c(C3CC3)nn1-c1ccc(C(=O)NC3CCN(C4CCCCC4)CC3)cc1F)CC2, which IC50 is on record?
Answer: < 0.6 µM

Question: Which IC50 does the source give for CC(=O)Nc1nc2c(s1)-c1c(c(C3CC3)nn1-c1ccc(C(=O)N[C@H]3CC[C@@H](N(C)CC4CCCC4)CC3)c(F)c1)CC2 here?
Answer: < 0.6 µM

Question: How did the IC50 turn out when CC(=O)Nc1nc2c(s1)-c1c(c(C3CC3)nn1C1CCN(C(=O)C3CCN(CC4CCCCC4)CC3)CC1)CC2 was run?
Answer: < 0.6 µM

Question: CC(=O)Nc1nc2c(s1)-c1c(c(C3CC3)nn1-c1ccc(C(=O)NC3CCN(C4CCCCC4)CC3)cc1Cl)CC2 was tested. Which IC50 did it give?
Answer: < 0.6 µM

Question: With CC(=O)Nc1nc2c(s1)-c1c(c(C3CC3)nn1-c1ccc(C(=O)N(C)C[C@H]3CCN(C4CCCC4)C3)c(Cl)c1)CC2 as the compound, how does the IC50 read?
Answer: < 0.6 µM

Question: For CC(=O)Nc1nc2c(s1)-c1c(c(C3CC3)nn1-c1ccc(C(=O)NC3CCN(C4CCCCC4)CC3)c(C)c1)CC2, which IC50 is on record?
Answer: < 0.6 µM

Question: With CC(=O)Nc1nc2c(s1)-c1c(c(C3CC3)nn1-c1ccc(C(=O)N[C@H]3CC[C@@H](N(C)C)CC3)cc1Cl)CC2 as the compound, how does the IC50 read?
Answer: < 0.6 µM

Question: For CC(=O)Nc1nc2c(s1)-c1c(c(C3CC3)nn1C1CCN(C(=O)[C@H]3CC[C@@H](N4CCCC4)CC3)CC1)CC2, which IC50 is on record?
Answer: < 0.6 µM

Question: With CC(=O)Nc1nc2c(s1)-c1c(c(C3CC3)nn1-c1ccccc1Cl)CC2 as the compound, how does the IC50 read?
Answer: < 0.6 µM

Question: Which IC50 does the source give for CC(=O)Nc1nc2c(s1)-c1c(c(C3CC3)nn1C1CCC(C(=O)N[C@H]3CC[C@H](N4CCCC4)CC3)CC1)CC2 (some centres undefined) here?
Answer: < 0.6 µM

Question: CC(=O)Nc1nc2c(s1)-c1c(c(C3CC3)nn1-c1ccc(C(=O)N[C@H]3CC[C@@H](N4CCCC4)CC3)c(Cl)c1)CC2 was tested. Which IC50 did it give?
Answer: < 0.6 µM

Question: With CC(=O)Nc1nc2c(s1)-c1c(c(C3CC3)nn1-c1ccc(C(=O)N(C)C)cc1Cl)CC2 as the compound, how does the IC50 read?
Answer: < 0.6 µM

Question: CC(=O)Nc1nc2c(s1)-c1c(c(C3CC3)nn1-c1ccc(C(=O)N3CC[C@@H](CN4CCCC4)C3)c(Cl)c1)CC2 was tested. Which IC50 did it give?
Answer: < 0.6 µM

Question: For CCN(C(=O)c1ccc(-n2nc(C3CC3)c3c2-c2sc(NC(C)=O)nc2CC3)cc1F)[C@H]1CC[C@@H](N2CCCC2)CC1, which IC50 is on record?
Answer: < 0.6 µM

Question: With CC(=O)Nc1nc2c(s1)-c1c(c(C3CC3)nn1-c1ccc(CC(=O)NC3CCN(C4CCCC4)CC3)cc1Cl)CC2 as the compound, how does the IC50 read?
Answer: < 0.6 µM

Question: CC(=O)Nc1nc2c(s1)-c1c(c(C3CCCC3)nn1-c1ccccc1Cl)CC2 was tested. Which IC50 did it give?
Answer: < 0.6 µM

Question: CC(=O)Nc1nc2c(s1)-c1c(c(C3CC3)nn1-c1ccc(C(=O)N[C@@H]3CCN(C4CCCC4)C3)cc1Cl)CC2 was tested. Which IC50 did it give?
Answer: < 0.6 µM

Question: With CC(=O)Nc1nc2c(s1)-c1c(c(C3CC3)nn1-c1ccc(C(=O)N3CCN(C4CCCC4)CC3)c(Cl)c1)CC2 as the compound, how does the IC50 read?
Answer: < 0.6 µM

Question: For CCCN1CC[C@@H](NC(=O)c2ccc(-n3nc(C4CC4)c4c3-c3sc(NC(C)=O)nc3CC4)cc2C)C1, which IC50 is on record?
Answer: < 0.6 µM

Question: With CC(=O)Nc1nc2c(s1)-c1c(c(C3CCC3)nn1-c1ccc(C(=O)NC3CCN(C)CC3)cc1Cl)CC2 as the compound, how does the IC50 read?
Answer: < 0.6 µM

Question: How did the IC50 turn out when CC(=O)Nc1nc2c(s1)-c1c(c(C3CC3)nn1-c1ccc(C(=O)NC3CCN(C)CC3)cc1Cl)CC2 was run?
Answer: < 0.6 µM

Question: Which IC50 does the source give for CC(=O)Nc1nc2c(s1)-c1c(c(C3CC3)nn1-c1ccc(C(=O)N[C@@H]3CCN(C4CCCCC4)C3)cc1C)CC2 here?
Answer: < 0.6 µM

Question: For CC(=O)Nc1nc2c(s1)-c1c(c(C3CCCC3)nn1-c1ccc(C(=O)N[C@H]3CC[C@@H](N4CCCC4)CC3)cc1Cl)CC2, which IC50 is on record?
Answer: < 0.6 µM

Question: With CC(=O)Nc1nc2c(s1)-c1c(c(C3CC3)nn1-c1ccc(C(=O)N[C@H]3CC[C@@H](N4CCCC4)CC3)cc1F)CC2 as the compound, how does the IC50 read?
Answer: < 0.6 µM

Question: For COc1cc(-n2nc(C3CC3)c3c2-c2sc(NC(C)=O)nc2CC3)ccc1C(=O)N[C@H]1CC[C@@H](N2CCCC2)CC1, which IC50 is on record?
Answer: < 0.6 µM

Question: For CC(=O)Nc1nc2c(s1)-c1c(c(C3CC3)nn1C1CCC(C(N)=O)CC1)CC2 (centres undefined), which IC50 is on record?
Answer: < 0.6 µM

Question: For CC(=O)Nc1nc2c(s1)-c1c(c(C3CC3)nn1-c1ccc(C(=O)N(C)[C@H]3CCN(C4CCCCC4)C3)cc1F)CC2, which IC50 is on record?
Answer: < 0.6 µM

Question: With CC(=O)Nc1nc2c(s1)-c1c(c(C3CC3)nn1-c1ccc(C(=O)N[C@@H]3CCN(C4CCCC4)C3)c(C)c1)CC2 as the compound, how does the IC50 read?
Answer: < 0.6 µM

Question: For CC(=O)Nc1nc2c(s1)-c1c(c(C3CC3)nn1-c1ccc(C(=O)N[C@@H]3CCN(C4CCCC4)C3)cc1F)CC2, which IC50 is on record?
Answer: < 0.6 µM

Question: For CC(=O)Nc1nc2c(s1)-c1c(c(C3CC3)nn1-c1ccc(C(=O)N(C)[C@H]3CC[C@@H](N4CCCC4)CC3)c(C)c1)CC2, which IC50 is on record?
Answer: < 0.6 µM

Question: For CC(=O)Nc1nc2c(s1)-c1c(c(C3CC3)nn1-c1ccc(N)c(Cl)c1)CC2, which IC50 is on record?
Answer: < 0.6 µM

Question: For CC(=O)Nc1nc2c(s1)-c1c(c(C3CC3)nn1-c1ccc(C(=O)NC3CCN(C4CCCC4)CC3)cc1C)CC2, which IC50 is on record?
Answer: < 0.6 µM

Question: How did the IC50 turn out when CC(=O)Nc1nc2c(s1)-c1c(c(C3(C)CC3)nn1-c1ccc(C(=O)N[C@H]3CC[C@@H](N4CCCCC4)CC3)cc1Cl)CC2 was run?
Answer: < 0.6 µM

Question: Which IC50 does the source give for CC(=O)Nc1nc2c(s1)-c1c(c(C3CC3)nn1C1CCN(C(=O)N3CCN(C(C)C)CC3)CC1)CC2 here?
Answer: < 0.6 µM

Question: With CC(=O)Nc1nc2c(s1)-c1c(c(C3CC3)nn1-c1ccc(C(=O)N[C@H]3CC[C@@H](N4CCCC4)CC3)c(C)c1)CC2 as the compound, how does the IC50 read?
Answer: < 0.6 µM

Question: CC(=O)Nc1nc2c(s1)-c1c(c(C3CC3)nn1-c1ccc(C(=O)N[C@@H]3CCN(CC4CCCC4)C3)cc1C)CC2 was tested. Which IC50 did it give?
Answer: < 0.6 µM

Question: For CC(=O)Nc1nc2c(s1)-c1c(c(C3CC3)nn1-c1ccc(C(=O)NC3CCN(CC4CCCCC4)CC3)cc1C)CC2, which IC50 is on record?
Answer: < 0.6 µM

Question: How did the IC50 turn out when CC(=O)Nc1nc2c(s1)-c1c(c(C3CC3)nn1-c1ccc(N(C)C(=O)C3CCN(C4CCCC4)CC3)cc1Cl)CC2 was run?
Answer: < 0.6 µM

Question: Which IC50 does the source give for CC(=O)Nc1nc2c(s1)-c1c(c(C3CC3)nn1-c1ccc(C(=O)N[C@H]3CC[C@@H](N4CCOCC4)CC3)c(Cl)c1)CC2 here?
Answer: < 0.6 µM

Question: Which IC50 does the source give for CC(=O)Nc1nc2c(s1)-c1c(c(C3CC3)nn1-c1ccc(C(=O)N(C)C3CCN(C4CCCC4)CC3)c(Cl)c1)CC2 here?
Answer: < 0.6 µM

Question: How did the IC50 turn out when COc1cc(-n2nc(C3CC3)c3c2-c2sc(NC(C)=O)nc2CC3)ccc1C(=O)NC1CCN(C2CCCC2)CC1 was run?
Answer: < 0.6 µM

Question: For CNC(=O)c1ccc(-n2nc(C3CC3)c3c2-c2sc(NC(C)=O)nc2CC3)c(Cl)c1, which IC50 is on record?
Answer: < 0.6 µM

Question: How did the IC50 turn out when CC(=O)Nc1nc2c(s1)-c1c(c(C3CC3)nn1-c1ccc(C(=O)N[C@H]3CC[C@@H](N4CCOCC4)CC3)cc1Cl)CC2 was run?
Answer: < 0.6 µM

Question: CC(=O)Nc1nc2c(s1)-c1c(c(C3CC3)nn1-c1ccc(C(=O)NC3CCN(C4CCCC4)CC3)cc1F)CC2 was tested. Which IC50 did it give?
Answer: < 0.6 µM

Question: CC(=O)Nc1nc2c(s1)-c1c(c(C3CC3)nn1-c1ccc(C(=O)N(C)[C@H]3CCN(C4CCCCC4)C3)c(F)c1)CC2 was tested. Which IC50 did it give?
Answer: < 0.6 µM

Question: With CCCN1CCC(NC(=O)c2ccc(-n3nc(C4CC4)c4c3-c3sc(NC(C)=O)nc3CC4)cc2C)CC1 as the compound, how does the IC50 read?
Answer: < 0.6 µM

Question: With CNC(=O)c1ccc(-n2nc(C3(C)CC3)c3c2-c2sc(NC(C)=O)nc2CC3)c(Cl)c1 as the compound, how does the IC50 read?
Answer: < 0.6 µM

Question: How did the IC50 turn out when CCCN1CCC(NC(=O)c2ccc(-n3nc(C4CCCC4)c4c3-c3sc(NC(C)=O)nc3CC4)c(Cl)c2)CC1 was run?
Answer: < 0.6 µM

Question: With CC(=O)Nc1nc2c(s1)-c1c(c(C3CC3)nn1-c1ccc(C(=O)N(C)[C@H]3CC[C@@H](N(C)CC4CC4)CC3)cc1F)CC2 as the compound, how does the IC50 read?
Answer: < 0.6 µM

Question: With CC(=O)Nc1nc2c(s1)-c1c(c(C3CC3)nn1-c1ccc(C(=O)N(C)[C@H]3CC[C@@H](N4CCCCC4)CC3)c(Cl)c1)CC2 as the compound, how does the IC50 read?
Answer: < 0.6 µM

Question: With CCCN1CCC(NC(=O)c2ccc(-n3nc(C4CC4)c4c3-c3sc(NC(C)=O)nc3CC4)c(F)c2)CC1 as the compound, how does the IC50 read?
Answer: < 0.6 µM
